IC50 data for five compounds are collected here from ChEMBL document CHEMBL3124848, “Crystal structures of human transthyretin complexed with glabridin” (J Med Chem, 2014).

The target in this assay is Transthyretin (Homo sapiens, UniProt P02766, V50M). The experiment in a line: Inhibition of transthyretin V30M mutant (unknown origin) expressed in Escherichia coli assessed as inhibition of sodium acetate-mediated aggregation preincubated for 30 mins followed by sodium acetate addition measured after 96 hrs by thioflavin T assay.
For `Oc1ccc([C@@H]2COc3cc(O)ccc3C2)cc1`, the IC50 worked out at 13 µM.

On to `O=c1c(-c2ccc(O)cc2)coc2cc(O)ccc12` [DAIDZEIN], for which the half-inhibitory concentration (IC50) was 16 µM.

For the compound `O=c1c(-c2ccc(O)cc2)coc2cc(O)cc(O)c12` [GENISTEIN], the IC50 stood at 7.8 µM.

For the compound `CC1(C)C=Cc2c(ccc3c2OC[C@@H](c2ccc(O)cc2O)C3)O1` [GLABRIDIN], the 50% inhibitory concentration (IC50) was 6.4 µM.

On to `O=c1cc(-c2ccc(O)c(O)c2)oc2cc(O)cc(O)c12` [LUTEOLIN], for which the IC50 was 6.4 µM.

Usually IC50 stands for the concentration that inhibits the measured activity by half.
